Results from patent US20180010188A1, “METHOD FOR DETECTING NONSENSE-MEDIATED RNA DECAY” (The Regents of the University of California, priority 2016, published 2018).

Assays:
Xbp1 splicing = Xbp1 splicing (ER stress) by RT-PCR / Xbp1s level; type: cell-based, mouse
Description: We investigated another consequence of thapsigargin treatment, ER stress, for its possible association with NMD inhibition. Because thapsigargin-induced NMD inhibition occurred as early as 1 hour post-treatment, we examined cellular stress levels by measuring the splicing activity of X-box binding protein 1 (Xbp1). Xbp1 splicing rapidly responds to ER stress. As a part of the unfolded protein response (UPR) triggered by ER stress, the serine/threonine protein kinase/endoribonuclease inositol-requiring enzyme 1 (IRE1α) oligomerizes and activates its ribonuclease activity through trans-autophosphorylation (Rubio et al., 2011. J Cell Biol 193: 171-184; Samali et al., 2010. Int J Cell Biol 2010: 830307; van Schadewijk et al., 2012. Cell Stress Chaperones 17: 275-279; Hetz C. 2012. Nat Rev Mol Cell Biol 13: 89-102). Activated IRE1α excises a 26-nt intron of Xbp1 mRNA, resulting in a shorter isoform (Xbp1s) that encodes a potent transcriptional activator for the expression of chaperones. RT-PCR with primers flanking the 26-nt intron detected Xbp1 splicing at 1 hour after thapsigargin treatment (FIG. 3A). […] Since IRE1α is targeted by NMD (Karam et al., 2015. EMBO Rep 16: 599-609; Oren et al. 2014. EMBO Mol Med 6: 685-701), the Xbp1 intron excision could have been due to thapsigargin-induced NMD inhibition. […] Nevertheless, feedback between these two pathways may have occurred in the later phase (see below).
(§1) Neuro-2a (N2a) cells were maintained in N2a complete media consisting of L-glutamine-free Dulbecco's modified Eagle's medium (DMEM), 10% FBS and 1× GlutaMAX at 37° C. Thapsigargin (VWR, cat. no. 89161-410), ionomycin (Fisher Scientific, cat. no. AG-CN2-0416-M001) and ouabain octahydrate (Fisher Scientific, cat. no. 80055-364) were dissolved in DMSO and stored at −80° C. […]
Trizol (Life Technologies, cat. no. 15596-018) was directly added to the cells or mouse brain tissues to extract total RNA following the Trizol Reagent standard protocol. […] RNA concentrations were measured using a Nanodrop 2000c (Thermo Fisher). […]

Bip transcript = Bip transcript levels as reporter of ATF6α activity; type: cell-based, mouse
From the text: Perk knockdown attenuated thapsigargin-induced Xpb1s (FIG. 4E) probably due to the restoration of NMD activity and because NMD inhibits IRE1α to splice Xbp1 (Oren et al. 2014. EMBO Mol Med 6: 685-701; Karam et al., 2015. EMBO Rep 16: 599-609). […] The Xbp1s level in the thapsigargin-treated siPerk cells was still 6 to 8 fold higher than in DMSO-treated cells, indicative of potent IRE1a activity. We also examined Bip transcript levels as a reporter of ATF6α activity (FIG. 4F). […] In summary, in PERK-deficient cells, thapsigargin continued to activate IREα and ATF6α but no longer inhibited NMD.
as §1
Trizol (Life Technologies, cat. no. 15596-018) was directly added to the cells or mouse brain tissues to extract total RNA following the Trizol Reagent standard protocol. […] RNA concentrations were measured using a Nanodrop 2000c (Thermo Fisher). […] Relative expression (fold changes) was calculated using the ΔΔCt method. […]

SMILES | thapsigargin-induced Xbp1s (Xbp1 splicing; thapsigargin plus GSK2606414) | Bip transcripts (Bip transcript; thapsigargin plus GSK2606414) | time at which Xbp1 splicing was detected (Xbp1 splicing; 0.2 μM thapsigargin, N2a cells) [h] | concentration at which Xbp1 intron excision occurred (Xbp1 splicing; N2a cells, 5 hours post-treatment) [µM] | Bip transcript levels (Bip transcript; thapsigargin treatment, maintained with siPerk)
Cn1cc(-c2ccc3c(c2)CCN3C(=O)Cc2cccc(C(F)(F)F)c2)c2c(N)ncnc21 [GSK2606414] | attenuating | did not down-regulate |  |  | 
C/C=C(/C)C(=O)O[C@H]1C(C)=C2[C@H]([C@@H]1OC(=O)CCCCCCC)[C@@](C)(OC(C)=O)C[C@H](OC(=O)CCC)[C@@]1(O)[C@H]2OC(=O)[C@@]1(C)O [thapsigargin] |  |  | 1 | 0.01 | significantly boosted
